Each structure is given as a SMILES string.

The test system of the data set is Primary hepatocytes. The experiment in a line: in vitro exposure of primary hepatocytes to volatile HCFCs, enzyme leakage (LDH and AST). It counts as cell-based. The settings on record: 10,000, 100,000 and 500,000 ppm, 24 hours. The source says: Any adherent cell line or adherent primary cell type can be used in this system. Adherent cell lines may attach to glass walls, i.e., the inner surface of a glass body 10. When cells reach confluency, exposure can bc initiated. […] This can be accomplished by attaching primary cells to a sterile strip of inert mesh 38, e.g., nylon mesh, precoated with an attachment factor such as collagen. The mesh is carefully rolled and placed into body 10 through one of the openings 14 or 16. After the mesh is unrolled within body 10, the openings 14 and 1.6 are sealed using the septa or the valve 22 previously described.
The cells to be tested are washed and isolated using known procedures. The washed isolated cells are resuspended at a suitable cell density, e.g., about 10^6 to 10^7 /ml, in a suitable culture medium, e.g., Williams E or Leibovitz's-15. The culture medium may be supplemented with a suitable media supplement, e.g., fetal calf serum, dexamethasone, etc. The suspended cells are distributed over the mesh or over the inner surface of device 10. The cells are allowed to attach for a suitable period. If the mesh is used, it is rolled into a narrow tube, inserted into device 10 and allowed to unroll. Culture medium is added to the device 10 to a desired quantity. Scaling means 18 and 20 are inserted into openings 14 and 16. […]
A syringe needle is inserted through one of the sealing means 18 or 20 to provide egress for excess atmosphere within device 10. […] A sample of the atmosphere within device 10 is taken from each device prepared for testing and analyzed by gas-chromatography (GC) to determine the actual concentration of the volatile compound in the device.
The thus-prepared test device is placed on a roller apparatus in an incubator at a suitable temperature. […] At the termination exposure, a second sample of the atmosphere should be taken and analyzed by GC to ensure that the volatile compound is present at a concentration of at least about 95% of that measured initially. […]
Turning to `FC(Cl)C(F)(F)F` (stereo not drawn) [HCFC-124, 1-chloro-1,2,2,2-trifiuoroethane], the “relative rank ordering of toxicity, based on lactate dehydrogenase (LDH) and S-amino-transferase (AST) enzyme leakages” value (“relative rank ordering of toxicity” for short) is “HCFC-123>HCFC-123/142b>HCFC-124>HCFC-142b”.

Take `FC(F)(F)C(Cl)Cl` [HCFC-123, 2,2-dichloro-1,1,1-trifluoroethane]: the “relative rank ordering of toxicity” value is “HCFC-123>HCFC-123/142b>HCFC-124>HCFC-142b”.

`CC(F)(F)Cl` [HCFC-142b, 1-chloro-1,1-difluoroethane]: the “relative rank ordering of toxicity” value was “HCFC-123>HCFC-123/142b>HCFC-124>HCFC-142b”.

The record behind these values is patent publication US5508174A, “Method and micro roller bottle for in vitro exposure of cells to volatile chemicals” (The United States of America as represented by the …, priority 1993, dated 1996).
